Source: ChEMBL document CHEMBL1137051, “More potent linear peptide inhibitors of mammalian ribonucleotide reductase” (Bioorg Med Chem Lett, 2004)
Where a SMILES comes first, the peptide text is derived from it. [ ]: non-standard residue; d: D form. The star is where a group is joined. Fmoc = O=C(OCC1c2ccccc2-c2ccccc21)*; NMeF = CN[C@@H](Cc1ccccc1)C(=O)O; NMePhg = CN[C@H](C(=O)O)c1ccccc1; Cha = N[C@@H](CC1CCCCC1)C(=O)O

Legend:
[1] = molecular target: T1, Ribonucleoside-diphosphate reductase RR1 (Homo sapiens, UniProt P23921+P31350+Q7LG56); assay: (§1) Inhibition of mammalian ribonucleotide reductase in a standard dTTP-dependent GDP reductase assay; assay type: protein-complex assay
T1 sequence (P23921 whole entry): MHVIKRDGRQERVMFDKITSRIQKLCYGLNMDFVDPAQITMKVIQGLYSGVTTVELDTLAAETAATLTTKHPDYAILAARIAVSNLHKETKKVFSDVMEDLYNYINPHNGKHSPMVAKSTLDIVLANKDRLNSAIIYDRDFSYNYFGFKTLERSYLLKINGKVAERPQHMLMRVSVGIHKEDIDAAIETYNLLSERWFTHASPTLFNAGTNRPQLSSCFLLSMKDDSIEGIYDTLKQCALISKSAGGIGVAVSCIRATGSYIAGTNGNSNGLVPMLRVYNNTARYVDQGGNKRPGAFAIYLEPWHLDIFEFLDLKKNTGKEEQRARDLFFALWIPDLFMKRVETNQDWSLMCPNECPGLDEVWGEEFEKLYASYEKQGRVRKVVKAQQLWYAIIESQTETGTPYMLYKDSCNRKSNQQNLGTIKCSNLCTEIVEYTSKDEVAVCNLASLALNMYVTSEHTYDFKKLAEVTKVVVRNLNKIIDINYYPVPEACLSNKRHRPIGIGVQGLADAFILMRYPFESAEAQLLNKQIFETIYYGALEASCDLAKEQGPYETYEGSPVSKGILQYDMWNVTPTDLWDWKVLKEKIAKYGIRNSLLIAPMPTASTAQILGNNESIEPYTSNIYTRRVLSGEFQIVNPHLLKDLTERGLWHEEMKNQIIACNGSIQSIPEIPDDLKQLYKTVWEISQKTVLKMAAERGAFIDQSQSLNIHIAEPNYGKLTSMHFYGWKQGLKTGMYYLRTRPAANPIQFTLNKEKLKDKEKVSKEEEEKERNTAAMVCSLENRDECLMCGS
T1 sequence (Q7LG56 whole entry): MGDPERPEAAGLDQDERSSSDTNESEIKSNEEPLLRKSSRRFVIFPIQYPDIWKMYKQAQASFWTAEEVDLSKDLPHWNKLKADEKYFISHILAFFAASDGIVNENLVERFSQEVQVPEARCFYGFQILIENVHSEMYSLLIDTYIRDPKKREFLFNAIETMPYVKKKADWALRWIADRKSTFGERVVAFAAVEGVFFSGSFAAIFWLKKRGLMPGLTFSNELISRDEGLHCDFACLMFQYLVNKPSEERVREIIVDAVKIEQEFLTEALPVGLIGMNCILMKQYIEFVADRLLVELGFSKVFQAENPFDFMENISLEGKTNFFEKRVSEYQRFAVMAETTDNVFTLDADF
T1 sequence (P31350 whole entry): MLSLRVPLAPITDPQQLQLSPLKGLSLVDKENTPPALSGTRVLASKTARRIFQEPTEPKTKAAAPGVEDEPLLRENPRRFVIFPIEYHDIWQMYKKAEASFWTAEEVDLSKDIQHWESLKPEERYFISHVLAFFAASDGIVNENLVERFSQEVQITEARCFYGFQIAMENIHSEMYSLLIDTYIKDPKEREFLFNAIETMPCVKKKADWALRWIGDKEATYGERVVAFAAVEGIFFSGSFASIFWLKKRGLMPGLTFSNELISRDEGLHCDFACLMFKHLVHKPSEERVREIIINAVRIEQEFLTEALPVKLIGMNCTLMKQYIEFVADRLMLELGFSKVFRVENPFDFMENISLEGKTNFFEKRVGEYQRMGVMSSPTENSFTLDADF

[2] = molecular target: T2, Ribonucleoside-diphosphate reductase RR1 (Homo sapiens, UniProt P23921+Q7LG56+P31350); assay: as §1; assay type: protein-complex assay
T2 sequence (P23921 whole entry): T1 sequence (P23921 whole entry)
T2 sequence (Q7LG56 whole entry): T1 sequence (Q7LG56 whole entry)
T2 sequence (P31350 whole entry): T1 sequence (P31350 whole entry)

Compound | IC50 [1] | IC50 [2]
CC(C)C[C@H](NC(=O)[C@H](Cc1ccccc1)N(C)C(=O)OCC1c2ccccc2-c2ccccc21)C(=O)N[C@@H](CC(=O)O)C(=O)N[C@@H](CC1CCCCC1)C(=O)N[C@@H](CC(=O)O)C(=O)N[C@@H](Cc1ccccc1)C(=O)O (Fmoc-[NMeF]LD[Cha]DF-OH) |  | 2.4 µM
CC(C)C[C@H](NC(=O)[C@H](Cc1ccccc1)N(C)C(=O)OCC1c2ccccc2-c2ccccc21)C(=O)N[C@@H](CCC(=O)O)C(=O)N[C@@H](CC1CCCCC1)C(=O)N[C@@H](CC(=O)O)C(=O)N[C@@H](Cc1ccccc1)C(=O)O (Fmoc-[NMeF]LE[Cha]DF-OH) |  | 2.4 µM
Ac-FTLDADF-OH | 13.3 µM | 

Now from value to compound:

IC50 [1] | IC50 [2] | Compound
22 µM |  | O=C(O)C[C@H](NC(=O)[C@H](Cc1ccccc1)NC(=O)[C@H](Cc1c[nH]c2ccccc12)NC(=O)OCC1c2ccccc2-c2ccccc21)C(=O)N[C@@H](Cc1ccccc1)C(=O)O (Fmoc-WFDF-OH)
20 µM |  | CC(C)[C@H](NC(=O)[C@H](Cc1c[nH]c2ccccc12)NC(=O)OCC1c2ccccc2-c2ccccc21)C(=O)N[C@@H](Cc1ccccc1)C(=O)N[C@@H](Cc1ccccc1)C(=O)O (Fmoc-WVFF-OH)
1.9 µM |  | CC(C)C[C@H](NC(=O)[C@H](c1ccccc1)N(C)C(=O)OCC1c2ccccc2-c2ccccc21)C(=O)N[C@@H](CC(=O)O)C(=O)N[C@@H](CC1CCCCC1)C(=O)N[C@@H](CC(=O)O)C(=O)N[C@@H](Cc1ccccc1)C(=O)O (Fmoc-[NMePhg]LD[Cha]DF-OH)
